Test results reported in PubChem BioAssay AID2060512 (Molecular Pharmacology Branch, DTP, NCI, 2025).

Test system: 186277-243-T-J2-PDC complex spheroid viability
Assay: Anticancer human tumor 186277-243-T-J2-PDC patient-derived colon adenocarcinoma cell line growth inhibition [GQUAD]
Conditions: for IC50: curve of first compound; for viability, T/C: stronger effect = lower value
Procedure, shortened: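 Multi-cell-type spheroids of tumor cells with HUVEC and mesenchymal stem cells, treated with drug combinations. Concentrations descend in half-log steps from near clinical Cmax, or from 10 microM where Cmax is unknown; viability read-out.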

[1] = second compound 0.0316 µM, first compound 0.0316 µM
[2] = second compound 0.0316 µM, first compound 0.316 µM
[3] = second compound 0.1 µM, first compound 0.0316 µM
[4] = second compound 0.1 µM, first compound 0.316 µM
[5] = second compound 0.316 µM, first compound 0.0316 µM
[6] = second compound 0.316 µM, first compound 0.316 µM
[7] = second compound 1 µM, first compound 0.0316 µM
[8] = second compound 1 µM, first compound 0.316 µM
[9] = second compound 3.16 µM, first compound 0.0316 µM
[10] = second compound 3.16 µM, first compound 0.316 µM
[11] = second compound 10 µM, first compound 0.0316 µM
[12] = second compound 10 µM, first compound 0.316 µM
[13] = second compound 0.0316 µM, first compound 0.1 µM
[14] = second compound 0.0316 µM, first compound 1 µM
[15] = second compound 0.0316 µM, first compound 3.16 µM
[16] = second compound 0.0316 µM, first compound 10 µM
[17] = second compound 0.1 µM, first compound 0.1 µM
[18] = second compound 0.1 µM, first compound 1 µM
[19] = second compound 0.1 µM, first compound 3.16 µM
[20] = second compound 0.1 µM, first compound 10 µM
[21] = second compound 0.316 µM, first compound 0.1 µM
[22] = second compound 0.316 µM, first compound 1 µM
[23] = second compound 0.316 µM, first compound 3.16 µM
[24] = second compound 0.316 µM, first compound 10 µM
[25] = second compound 1 µM, first compound 0.1 µM
[26] = second compound 1 µM, first compound 1 µM
[27] = second compound 1 µM, first compound 3.16 µM
[28] = second compound 1 µM, first compound 10 µM
[29] = second compound 3.16 µM, first compound 0.1 µM
[30] = second compound 3.16 µM, first compound 1 µM
[31] = second compound 3.16 µM, first compound 3.16 µM
[32] = second compound 3.16 µM, first compound 10 µM
[33] = second compound 10 µM, first compound 0.1 µM
[34] = second compound 10 µM, first compound 1 µM
[35] = second compound 10 µM, first compound 3.16 µM
[36] = second compound 10 µM, first compound 10 µM
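Further: spheroids exposed to drugs for 7 days.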
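Wherever viability, T/C is given: 100% = DMSO vehicle control viability.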

## CC[C@@]1(O)C(=O)OCc2c1cc1n(c2=O)Cc2cc3c(CN(C)C)c(O)ccc3nc2-1 + Cc1cnc(CNC(=O)c2c(=O)c3ccc(N4CCCN(C)CC4)nc3n3c2sc2ccccc23)cn1
Second compound 0.0316 µM
  IC50: > 316 nM
Second compound 0.1 µM
  IC50: 263 nM
Second compound 0.316 µM
  IC50: 176 nM
Second compound 1 µM
  IC50: < 0.999 nM
Second compound 3.16 µM
  IC50: < 0.999 nM
Second compound 10 µM
  IC50: < 0.999 nM
Second compound 0.0316 µM, first compound 0.000999 µM
  viability, T/C: 95.2%
Second compound 0.0316 µM, first compound 0.00316 µM
  viability, T/C: 85.6%
Second compound 0.0316 µM, first compound 0.00999 µM
  viability, T/C: 82.4%
[1]
  viability, T/C: 77.1%
Second compound 0.0316 µM, first compound 0.0999 µM
  viability, T/C: 64.4%
[2]
  viability, T/C: 52.8%
Second compound 0.1 µM, first compound 0.000999 µM
  viability, T/C: 79.6%
Second compound 0.1 µM, first compound 0.00316 µM
  viability, T/C: 74.4%
Second compound 0.1 µM, first compound 0.00999 µM
  viability, T/C: 87.5%
[3]
  viability, T/C: 60.9%
Second compound 0.1 µM, first compound 0.0999 µM
  viability, T/C: 66.6%
[4]
  viability, T/C: 47.1%
Second compound 0.316 µM, first compound 0.000999 µM
  viability, T/C: 68.1%
Second compound 0.316 µM, first compound 0.00316 µM
  viability, T/C: 56.5%
Second compound 0.316 µM, first compound 0.00999 µM
  viability, T/C: 71.3%
[5]
  viability, T/C: 70.7%
Second compound 0.316 µM, first compound 0.0999 µM
  viability, T/C: 62%
[6]
  viability, T/C: 36.6%
Second compound 1 µM, first compound 0.000999 µM
  viability, T/C: 47.9%
Second compound 1 µM, first compound 0.00316 µM
  viability, T/C: 38.1%
Second compound 1 µM, first compound 0.00999 µM
  viability, T/C: 49.7%
[7]
  viability, T/C: 50.1%
Second compound 1 µM, first compound 0.0999 µM
  viability, T/C: 52.2%
[8]
  viability, T/C: 38.2%
Second compound 3.16 µM, first compound 0.000999 µM
  viability, T/C: 49.6%
Second compound 3.16 µM, first compound 0.00316 µM
  viability, T/C: 44.2%
Second compound 3.16 µM, first compound 0.00999 µM
  viability, T/C: 46.7%
[9]
  viability, T/C: 40.7%
Second compound 3.16 µM, first compound 0.0999 µM
  viability, T/C: 46.2%
[10]
  viability, T/C: 27.7%
Second compound 10 µM, first compound 0.000999 µM
  viability, T/C: 39.6%
Second compound 10 µM, first compound 0.00316 µM
  viability, T/C: 37.4%
Second compound 10 µM, first compound 0.00999 µM
  viability, T/C: 47.1%
[11]
  viability, T/C: 41.8%
Second compound 10 µM, first compound 0.0999 µM
  viability, T/C: 41.6%
[12]
  viability, T/C: 36.4%

## CC(=O)O[C@H]1C(=O)[C@@]2(C)[C@H]([C@H](OC(=O)c3ccccc3)[C@]3(O)C[C@H](OC(=O)[C@H](O)[C@@H](NC(=O)c4ccccc4)c4ccccc4)C(C)=C1C3(C)C)[C@]1(OC(C)=O)CO[C@@H]1C[C@@H]2O + Cc1cnc(CNC(=O)c2c(=O)c3ccc(N4CCCN(C)CC4)nc3n3c2sc2ccccc23)cn1
Second compound 0.0316 µM
  IC50: < 31.6 nM
Second compound 0.1 µM
  IC50: < 31.6 nM
Second compound 0.316 µM
  IC50: < 31.6 nM
Second compound 1 µM
  IC50: < 31.6 nM
Second compound 3.16 µM
  IC50: < 31.6 nM
Second compound 10 µM
  IC50: < 31.6 nM
[1]
  viability, T/C: 25.6%
[13]
  viability, T/C: 11.8%
[2]
  viability, T/C: 7.83%
[14]
  viability, T/C: 7.31%
[15]
  viability, T/C: 7.28%
[16]
  viability, T/C: 7.34%
[3]
  viability, T/C: 26.4%
[17]
  viability, T/C: 18.3%
[4]
  viability, T/C: 11.9%
[18]
  viability, T/C: 11.9%
[19]
  viability, T/C: 11%
[20]
  viability, T/C: 10.4%
[5]
  viability, T/C: 32.6%
[21]
  viability, T/C: 18.1%
[6]
  viability, T/C: 18.1%
[22]
  viability, T/C: 20.5%
[23]
  viability, T/C: 17%
[24]
  viability, T/C: 16.6%
[7]
  viability, T/C: 29.4%
[25]
  viability, T/C: 29.9%
[8]
  viability, T/C: 23.1%
[26]
  viability, T/C: 25.1%
[27]
  viability, T/C: 23.8%
[28]
  viability, T/C: 21.5%
[9]
  viability, T/C: 24.4%
[29]
  viability, T/C: 27%
[10]
  viability, T/C: 24%
[30]
  viability, T/C: 23.5%
[31]
  viability, T/C: 25.5%
[32]
  viability, T/C: 22.3%
[11]
  viability, T/C: 29.8%
[33]
  viability, T/C: 25.5%
[12]
  viability, T/C: 26.1%
[34]
  viability, T/C: 25.2%
[35]
  viability, T/C: 24.8%
[36]
  viability, T/C: 23.7%

## C=CCn1c(=O)c2cnc(Nc3ccc(N4CCN(C)CC4)cc3)nc2n1-c1cccc(C(C)(C)O)n1 + Cc1cnc(CNC(=O)c2c(=O)c3ccc(N4CCCN(C)CC4)nc3n3c2sc2ccccc23)cn1
Second compound 0.0316 µM
  IC50: 117 nM
Second compound 0.1 µM
  IC50: < 31.6 nM
Second compound 0.316 µM
  IC50: 35.1 nM
Second compound 1 µM
  IC50: < 31.6 nM
Second compound 3.16 µM
  IC50: < 31.6 nM
Second compound 10 µM
  IC50: < 31.6 nM
[1]
  viability, T/C: 93.8%
[13]
  viability, T/C: 54.3%
[2]
  viability, T/C: 22%
[14]
  viability, T/C: 10.2%
[15]
  viability, T/C: 12.2%
[16]
  viability, T/C: 15.5%
[3]
  viability, T/C: 49.1%
[17]
  viability, T/C: 44.2%
[4]
  viability, T/C: 25.8%
[18]
  viability, T/C: 14.7%
[19]
  viability, T/C: 13.8%
[20]
  viability, T/C: 20.5%
[5]
  viability, T/C: 51.8%
[21]
  viability, T/C: 46.4%
[6]
  viability, T/C: 33.5%
[22]
  viability, T/C: 17.6%
[23]
  viability, T/C: 17.8%
[24]
  viability, T/C: 24.1%
[7]
  viability, T/C: 27.7%
[25]
  viability, T/C: 35.9%
[8]
  viability, T/C: 30.5%
[26]
  viability, T/C: 24.4%
[27]
  viability, T/C: 23.5%
[28]
  viability, T/C: 26.4%
[9]
  viability, T/C: 34.5%
[29]
  viability, T/C: 31.7%
[10]
  viability, T/C: 34.5%
[30]
  viability, T/C: 21.9%
[31]
  viability, T/C: 23.4%
[32]
  viability, T/C: 22.6%
[11]
  viability, T/C: 31.8%
[33]
  viability, T/C: 31.6%
[12]
  viability, T/C: 31.5%
[34]
  viability, T/C: 22.9%
[35]
  viability, T/C: 22.8%
[36]
  viability, T/C: 24.4%
